#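 Cells were grown in 96-well plates and exposed to each compound for 48 hours at five concentrations; endpoints were interpolated linearly between bracketing concentrations, or set to the highest concentration if not reached. At the GI50, growth is halved. TGI marks complete inhibition of growth.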
# How the values were obtained:
# Assay in all cases: inhibition of tumour cell growth, NCI panel, 48 h
# RPMI-8226 leukemia = tested on: RPMI-8226 leukemia
# NCI-H23 lung = tested on: NCI-H23 lung
# OVCAR-8 ovarian = tested on: OVCAR-8 ovarian
# HCT-15 colon = tested on: HCT-15 colon
# DU-145 prostate = tested on: DU-145 prostate
# HL-60(TB) leukemia = tested on: HL-60(TB) leukemia
# UACC-257 melanoma = tested on: UACC-257 melanoma
# HS 578T breast = tested on: HS 578T breast
# SK-MEL-2 melanoma = tested on: SK-MEL-2 melanoma
# BT-549 breast = tested on: BT-549 breast
# SK-MEL-28 melanoma = tested on: SK-MEL-28 melanoma
# SF-295 CNS = tested on: SF-295 CNS
# SF-539 CNS = tested on: SF-539 CNS
# M14 melanoma = tested on: M14 melanoma
# HOP-62 NSCLC = tested on: HOP-62 NSCLC
# CAKI-1 renal = tested on: CAKI-1 renal
# NCI-H522 lung = tested on: NCI-H522 lung
# KM12 colon = tested on: KM12 colon
# U251 CNS = tested on: U251 CNS
# PC-3 prostate = tested on: PC-3 prostate
# SF-268 CNS = tested on: SF-268 CNS
# OVCAR-3 ovarian = tested on: OVCAR-3 ovarian
# LOX IMVI melanoma = tested on: LOX IMVI melanoma
# HCC-2998 colon = tested on: HCC-2998 colon
# UO-31 renal = tested on: UO-31 renal
# OVCAR-4 ovarian = tested on: OVCAR-4 ovarian
# SNB-19 CNS = tested on: SNB-19 CNS
# T-47D breast = tested on: T-47D breast
# A498 renal = tested on: A498 renal
# SNB-75 CNS = tested on: SNB-75 CNS
# IGROV1 ovarian = tested on: IGROV1 ovarian
# SW-620 colon = tested on: SW-620 colon
# CCRF-CEM leukemia = tested on: CCRF-CEM leukemia
# MOLT-4 leukemia = tested on: MOLT-4 leukemia
# TK-10 renal = tested on: TK-10 renal
# SK-MEL-5 melanoma = tested on: SK-MEL-5 melanoma
# COLO 205 colon = tested on: COLO 205 colon
# OVCAR-5 ovarian = tested on: OVCAR-5 ovarian
# NCI-H226 lung = tested on: NCI-H226 lung
# HCT-116 colon = tested on: HCT-116 colon
# SK-OV-3 ovarian = tested on: SK-OV-3 ovarian
# MDA-MB-435 = tested on: MDA-MB-435
# MALME-3M melanoma = tested on: MALME-3M melanoma
# HT29 colon = tested on: HT29 colon
# NCI-H460 lung = tested on: NCI-H460 lung
# UACC-62 melanoma = tested on: UACC-62 melanoma
# K-562 leukemia = tested on: K-562 leukemia
# ACHN renal = tested on: ACHN renal
# MCF7 breast = tested on: MCF7 breast
# EKVX NSCLC = tested on: EKVX NSCLC
# A549 NSCLC = tested on: A549 NSCLC
# 786-0 renal = tested on: 786-0 renal
# RXF 393 renal = tested on: RXF 393 renal
# SR leukemia = tested on: SR leukemia
# SN12C renal = tested on: SN12C renal
# NCI/ADR-RES ovarian = tested on: NCI/ADR-RES ovarian
smiles,measurement,setting,value
COc1cc(OC2OC(CO)C(O)C(O)C2O)c2c(O)c3c(=O)cc(C)oc3cc2c1 (centres undefined),TGI,RPMI-8226 leukemia,> 100 µM
same,TGI,NCI-H23 lung,> 100 µM
same,TGI,OVCAR-8 ovarian,> 100 µM
same,TGI,HCT-15 colon,> 100 µM
same,TGI,DU-145 prostate,> 100 µM
same,TGI,HL-60(TB) leukemia,> 100 µM
same,TGI,UACC-257 melanoma,> 100 µM
same,TGI,HS 578T breast,> 100 µM
same,TGI,SK-MEL-2 melanoma,> 100 µM
same,TGI,BT-549 breast,> 100 µM
same,TGI,SK-MEL-28 melanoma,> 100 µM
same,TGI,SF-295 CNS,> 100 µM
same,TGI,SF-539 CNS,> 100 µM
same,TGI,M14 melanoma,> 100 µM
same,TGI,HOP-62 NSCLC,> 100 µM
same,TGI,CAKI-1 renal,> 100 µM
same,TGI,NCI-H522 lung,> 100 µM
same,TGI,KM12 colon,> 100 µM
same,TGI,U251 CNS,> 100 µM
same,TGI,PC-3 prostate,> 100 µM
same,TGI,SF-268 CNS,> 100 µM
same,TGI,OVCAR-3 ovarian,> 100 µM
same,TGI,LOX IMVI melanoma,> 100 µM
same,TGI,HCC-2998 colon,> 100 µM
same,TGI,UO-31 renal,> 100 µM
same,TGI,OVCAR-4 ovarian,> 100 µM
same,TGI,SNB-19 CNS,> 100 µM
same,TGI,T-47D breast,> 100 µM
same,TGI,A498 renal,> 100 µM
same,TGI,SNB-75 CNS,> 100 µM
same,TGI,IGROV1 ovarian,> 100 µM
same,TGI,SW-620 colon,> 100 µM
same,TGI,CCRF-CEM leukemia,> 100 µM
same,TGI,MOLT-4 leukemia,> 100 µM
same,TGI,TK-10 renal,> 100 µM
same,TGI,SK-MEL-5 melanoma,> 100 µM
same,TGI,COLO 205 colon,> 100 µM
same,TGI,OVCAR-5 ovarian,> 100 µM
same,TGI,NCI-H226 lung,> 100 µM
same,TGI,HCT-116 colon,> 100 µM
same,TGI,SK-OV-3 ovarian,> 100 µM
same,TGI,MDA-MB-435,> 100 µM
same,TGI,MALME-3M melanoma,> 100 µM
same,TGI,HT29 colon,> 100 µM
same,TGI,NCI-H460 lung,> 100 µM
same,TGI,UACC-62 melanoma,> 100 µM
same,TGI,K-562 leukemia,> 100 µM
same,TGI,ACHN renal,> 100 µM
same,TGI,MCF7 breast,> 100 µM
same,TGI,EKVX NSCLC,> 100 µM
same,TGI,A549 NSCLC,> 100 µM
CC(C)(C)c1cc(C(=O)Nc2ccccc2C(=O)NCCN)cc(C(C)(C)C)c1,GI50,NCI-H23 lung,1.94 µM
same,TGI,NCI-H23 lung,3.89 µM
same,GI50,OVCAR-8 ovarian,2.08 µM
same,TGI,OVCAR-8 ovarian,4.2 µM
same,GI50,HCT-15 colon,1.89 µM
same,TGI,HCT-15 colon,3.45 µM
same,GI50,DU-145 prostate,1.84 µM
same,TGI,DU-145 prostate,3.4 µM
same,GI50,HL-60(TB) leukemia,2.15 µM
same,TGI,HL-60(TB) leukemia,4.46 µM
same,GI50,UACC-257 melanoma,1.9 µM
same,TGI,UACC-257 melanoma,3.93 µM
same,GI50,HS 578T breast,2.07 µM
same,TGI,HS 578T breast,4.63 µM
same,GI50,SK-MEL-2 melanoma,1.94 µM
same,TGI,SK-MEL-2 melanoma,3.7 µM
same,GI50,BT-549 breast,2.33 µM
same,TGI,BT-549 breast,5.84 µM
same,GI50,SK-MEL-28 melanoma,1.91 µM
same,TGI,SK-MEL-28 melanoma,3.64 µM
same,GI50,SF-295 CNS,1.88 µM
same,TGI,SF-295 CNS,3.59 µM
same,GI50,SF-539 CNS,1.89 µM
same,TGI,SF-539 CNS,3.5 µM
same,GI50,786-0 renal,1.75 µM
same,TGI,786-0 renal,3.51 µM
same,GI50,M14 melanoma,1.91 µM
same,TGI,M14 melanoma,3.64 µM
same,GI50,HOP-62 NSCLC,1.67 µM
same,TGI,HOP-62 NSCLC,3.21 µM
same,GI50,RXF 393 renal,2.01 µM
same,TGI,RXF 393 renal,3.58 µM
same,GI50,SR leukemia,1.94 µM
same,TGI,SR leukemia,4.56 µM
same,GI50,CAKI-1 renal,2.21 µM
same,TGI,CAKI-1 renal,5.56 µM
same,GI50,NCI-H522 lung,1.85 µM
same,TGI,NCI-H522 lung,3.82 µM
same,GI50,KM12 colon,1.79 µM
same,TGI,KM12 colon,3.4 µM
same,GI50,U251 CNS,1.89 µM
same,TGI,U251 CNS,3.42 µM
same,GI50,PC-3 prostate,1.79 µM
same,TGI,PC-3 prostate,3.5 µM
same,GI50,SF-268 CNS,1.86 µM
same,TGI,SF-268 CNS,3.62 µM
same,GI50,OVCAR-3 ovarian,1.89 µM
same,TGI,OVCAR-3 ovarian,3.46 µM
same,GI50,LOX IMVI melanoma,1.53 µM
same,TGI,LOX IMVI melanoma,2.98 µM
same,GI50,HCC-2998 colon,1.83 µM
same,TGI,HCC-2998 colon,3.4 µM
same,GI50,UO-31 renal,1.67 µM
same,TGI,UO-31 renal,3.17 µM
same,GI50,OVCAR-4 ovarian,1.89 µM
same,TGI,OVCAR-4 ovarian,3.82 µM
same,GI50,SNB-19 CNS,1.93 µM
same,TGI,SNB-19 CNS,3.75 µM
same,GI50,T-47D breast,1.76 µM
same,TGI,T-47D breast,3.51 µM
same,GI50,A498 renal,2.38 µM
same,TGI,A498 renal,6.44 µM
same,GI50,SNB-75 CNS,1.68 µM
same,TGI,SNB-75 CNS,5.08 µM
same,GI50,SN12C renal,1.97 µM
same,TGI,SN12C renal,3.97 µM
same,GI50,SW-620 colon,1.87 µM
same,TGI,SW-620 colon,3.87 µM
same,GI50,CCRF-CEM leukemia,2.5 µM
same,TGI,CCRF-CEM leukemia,6.36 µM
same,GI50,MOLT-4 leukemia,2.2 µM
same,TGI,MOLT-4 leukemia,4.86 µM
same,GI50,TK-10 renal,1.68 µM
same,TGI,TK-10 renal,3.12 µM
same,GI50,SK-MEL-5 melanoma,1.82 µM
same,TGI,SK-MEL-5 melanoma,3.27 µM
same,GI50,COLO 205 colon,1.81 µM
same,TGI,COLO 205 colon,3.41 µM
same,GI50,OVCAR-5 ovarian,1.78 µM
same,TGI,OVCAR-5 ovarian,3.81 µM
same,GI50,NCI-H226 lung,1.96 µM
same,TGI,NCI-H226 lung,3.74 µM
same,GI50,HCT-116 colon,1.8 µM
same,TGI,HCT-116 colon,3.25 µM
same,GI50,SK-OV-3 ovarian,1.9 µM
same,TGI,SK-OV-3 ovarian,3.69 µM
same,GI50,MDA-MB-435,1.72 µM
same,TGI,MDA-MB-435,3.24 µM
same,GI50,MALME-3M melanoma,1.93 µM
same,TGI,MALME-3M melanoma,3.64 µM
same,GI50,HT29 colon,1.84 µM
same,TGI,HT29 colon,3.59 µM
same,GI50,NCI-H460 lung,1.94 µM
same,TGI,NCI-H460 lung,3.67 µM
same,GI50,UACC-62 melanoma,1.83 µM
same,TGI,UACC-62 melanoma,3.44 µM
same,GI50,K-562 leukemia,2.23 µM
same,TGI,K-562 leukemia,5.33 µM
same,GI50,ACHN renal,1.84 µM
same,TGI,ACHN renal,3.46 µM
same,GI50,NCI/ADR-RES ovarian,1.93 µM
same,TGI,NCI/ADR-RES ovarian,3.89 µM
same,GI50,MCF7 breast,1.76 µM
same,TGI,MCF7 breast,3.54 µM
same,GI50,EKVX NSCLC,1.76 µM
same,TGI,EKVX NSCLC,3.96 µM
same,GI50,A549 NSCLC,2.11 µM
same,TGI,A549 NSCLC,4.2 µM

# — PubChem BioAssay (NCI)
